For this series the following is noted: PAMPA, PAMPA_Papp_Avg (apparent permeability). On the technique in general: PAMPA measures passive passage across an artificial lipid membrane.

Where a SMILES comes first, the peptide text is derived from it. [ ]: non-standard residue; d: D form. dNMeI = CC[C@@H](C)[C@@H](NC)C(=O)O; NMeF = CN[C@@H](Cc1ccccc1)C(=O)O; dNMeF = CN[C@H](Cc1ccccc1)C(=O)O; NMeL = CN[C@@H](CC(C)C)C(=O)O; dNMeL = CN[C@H](CC(C)C)C(=O)O; NMeV = CN[C@H](C(=O)O)C(C)C; NMeA = CN[C@@H](C)C(=O)O; dNMeA = CN[C@H](C)C(=O)O

Take `CC(C)C[C@@H]1C(=O)N[C@H](C)C(=O)N[C@@H](C(C)C)C(=O)N2CCC[C@@H]2C(=O)N[C@H](C(C)C)C(=O)N2CCC[C@@H]2C(=O)N2CCC[C@H]2C(=O)N[C@H](C)C(=O)N(C)[C@H](CC(C)C)C(=O)N1C` [Design D9.29, vpPa*l*laVp] (cyclo([dA][dNMeL][dNMeL][dA]V[dP][dV][dP]P)): the Papp is 0.664 ×10⁻⁶ cm/s.
`CC[C@@H](C)[C@H]1NC(=O)[C@H](CC(C)C)NC(=O)[C@@H](C)N(C)C(=O)[C@@H]2CCCN2C(=O)[C@H](C)NC(=O)[C@@H](CC(C)C)NC(=O)[C@H]2CCCN2C(=O)[C@H](C(C)C)NC(=O)[C@@H](CC(C)C)N(C)C1=O` [Design D9.30, plAP*aLi*lV] (cyclo(AP[dNMeA]L[dI][dNMeL]V[dP][dL])): the Papp worked out at 1.6 ×10⁻⁶ cm/s.
Then `CC[C@@H](C)[C@H]1NC(=O)[C@H](Cc2ccccc2)NC(=O)[C@@H](C)NC(=O)[C@@H](CC(C)C)N(C)C(=O)[C@@H]2CCCN2C(=O)[C@H](C)NC(=O)[C@H]2CCCN2C(=O)[C@@H]2CCCN2C(=O)[C@@H](Cc2ccccc2)NC1=O` [Design D9.41, PpAP*laFif] (cyclo(AP[dNMeL][dA]F[dI][dF]P[dP])), with 1.02 ×10⁻⁶ cm/s; and `CC[C@H](C)[C@@H]1NC(=O)[C@@H](C(C)C)NC(=O)[C@@H]2CCCN2C(=O)[C@@H](CC(C)C)N(C)C(=O)[C@@H](C(C)C)NC(=O)[C@H](CC(C)C)N(C)C(=O)[C@H]2CCCN2C(=O)[C@@H](C)NC(=O)[C@H](Cc2ccccc2)N(C)C(=O)[C@H]2CCCN2C1=O` [Design D10.3., Ip*Fap*Lv*lPv] (cyclo(I[dP][NMeF][dA][dP][NMeL][dV][dNMeL]P[dV])), with 2.52 ×10⁻⁶ cm/s; and `CC(C)C[C@@H]1C(=O)N2CCC[C@@H]2C(=O)N(C)[C@@H](C(C)C)C(=O)N[C@@H](C(C)C)C(=O)N2CCC[C@H]2C(=O)N2CCC[C@@H]2C(=O)N[C@@H](C)C(=O)N[C@H](C(C)C)C(=O)N(C)[C@@H](CC(C)C)C(=O)N[C@@H](C)C(=O)N1C` [Design D10.6, PpAv*LA*lp*VV] (cyclo(A[dNMeL][dP][NMeV]VP[dP]A[dV][NMeL])), with 0.509 ×10⁻⁶ cm/s.
For `CC[C@@H](C)[C@H]1NC(=O)[C@H](CC(C)C)N(C)C(=O)[C@H]2CCCN2C(=O)[C@H](CC(C)C)NC(=O)[C@H](Cc2ccccc2)N(C)C(=O)[C@H](CC(C)C)N(C)C(=O)[C@@H](C(C)C)NC(=O)[C@H](C)NC(=O)[C@H]2CCCN2C(=O)[C@@H]2CCCN2C1=O` [Design D10.17, *L*FLp*LiPpAv] (cyclo(A[dV][NMeL][NMeF]L[dP][NMeL][dI]P[dP])), the Papp worked out at 2.69 ×10⁻⁶ cm/s.
In the case of `CC[C@@H](C)[C@H]1NC(=O)[C@H](C(C)C)NC(=O)[C@H]2CCCN2C(=O)[C@@H]2CCCN2C(=O)[C@H](CC(C)C)N(C)C(=O)[C@H](C)N(C)C(=O)[C@@H](CC(C)C)N(C)C(=O)[C@H](C)NC(=O)[C@@H](Cc2ccccc2)NC(=O)[C@@H]2CCCN2C1=O` [Design D10.25, fA*l*A*LPpViP] (cyclo(A[dNMeL][NMeA][NMeL]P[dP]V[dI]P[dF])), the Papp came out at 0.756 ×10⁻⁶ cm/s.
With `CC[C@@H](C)[C@H]1NC(=O)[C@@H]2CCCN2C(=O)[C@@H](Cc2ccccc2)NC(=O)[C@H](CC(C)C)N(C)C(=O)[C@H](C)NC(=O)[C@H]2CCCN2C(=O)[C@@H]2CCCN2C(=O)[C@H](CC(C)C)NC(=O)[C@H](CC(C)C)N(C)C(=O)[C@H](C)N(C)C1=O` [Design D10.26, Pi*A*LLPpA*Lf] (cyclo(A[NMeL][dF]P[dI][NMeA][NMeL]LP[dP])) the figure was 0.808 ×10⁻⁶ cm/s.
As to `CC(C)C[C@H]1NC(=O)[C@H](CC(C)C)N(C)C(=O)[C@@H](Cc2ccccc2)NC(=O)[C@@H](C)N(C)C(=O)[C@@H]2CCCN2C(=O)[C@H](C(C)C)NC(=O)[C@H](CC(C)C)N(C)C(=O)[C@@H](C)NC(=O)[C@@H]2CCCN2C(=O)[C@H]2CCCN2C1=O` [Design D10.32, P*af*LlpPa*LV] (cyclo([dA][NMeL]VP[dNMeA][dF][NMeL][dL][dP]P)), the Papp turned out to be 1.86 ×10⁻⁶ cm/s.
Turning to `CSCC[C@@H]1NC(=O)[C@H](CC(C)C)NC(=O)[C@@H]2CCCN2C(=O)[C@H]2CCCN2C(=O)[C@@H](C)NC(=O)[C@H]2CCCN2C(=O)[C@@H](CC(C)C)NC(=O)[C@@H](C)N(C)C(=O)[C@H](CC(C)C)N(C)C(=O)[C@@H](C)N(C)C1=O` [Design D10.40, M*a*L*alpapPL] (cyclo(LM[dNMeA][NMeL][dNMeA][dL][dP][dA][dP]P)), the Papp turned out to be 0.34 ×10⁻⁶ cm/s.
Then `CC[C@@H](C)[C@H]1NC(=O)[C@@H](CC(C)C)NC(=O)[C@@H](CC(C)C)NC(=O)[C@H]2CCCN2C(=O)[C@H](CC(C)C)N(C)C(=O)[C@@H](C)N(C)C(=O)[C@@H]2CCCN2C(=O)[C@@H]([C@H](C)CC)NC(=O)[C@@H](C(C)C)NC(=O)[C@@H]2CCCN2C1=O` [Design D10.46, PviP*a*Lplli] (cyclo([NMeL][dP][dL][dL][dI]P[dV][dI]P[dNMeA])), with 0.388 ×10⁻⁶ cm/s; and `CC(C)C[C@@H]1NC(=O)[C@@H](Cc2ccccc2)N(C)C(=O)[C@H](C(C)C)NC(=O)[C@H](C)NC(=O)[C@@H](C)NC(=O)[C@@H](Cc2ccccc2)N(C)C(=O)[C@@H]2CCCN2C(=O)[C@H](C(C)C)NC(=O)[C@@H]2CCCN2C(=O)[C@@H](C)NC1=O` [Design D10.48, aPVP*faAV*fL] (cyclo(AV[dNMeF]L[dA]PVP[dNMeF][dA])), with 0.716 ×10⁻⁶ cm/s; and `CC[C@H](C)[C@@H]1NC(=O)[C@H](Cc2ccccc2)N(C)C(=O)[C@H]2CCCN2C(=O)[C@@H](CC(C)C)N(C)C(=O)[C@@H](Cc2ccccc2)NC(=O)[C@H](C(C)C)NC(=O)[C@H](CC(C)C)NC(=O)[C@H]2CCCN2C(=O)[C@H](CC(C)C)NC(=O)[C@@H]2CCCN2C1=O` [Design D10.50, LVf*lp*FIPLp] (cyclo(IPL[dP]LV[dF][dNMeL][dP][NMeF])), with 0.628 ×10⁻⁶ cm/s.
Turning to `CC[C@@H](C)[C@H]1NC(=O)[C@H]([C@@H](C)CC)NC(=O)[C@H](Cc2ccccc2)N(C)C(=O)[C@H]2CCCN2C(=O)[C@@H]([C@H](C)CC)NC(=O)[C@@H]([C@H](C)CC)N(C)C(=O)[C@H](CC(C)C)NC(=O)[C@H]2CCCN2C(=O)[C@@H]2CCCN2C(=O)[C@H](C(C)C)NC(=O)[C@H]2CCCN2C1=O` [Design D11.4, VPpL*iip*FIip] (cyclo(I[dI][dP]VP[dP]L[dNMeI][dI][dP][NMeF])), the Papp is 1.84 ×10⁻⁶ cm/s.
Then `CC[C@@H](C)[C@H]1NC(=O)[C@H](C)NC(=O)[C@@H](CC(C)C)N(C)C(=O)[C@H](CC(C)C)N(C)C(=O)[C@H](C(C)C)NC(=O)[C@@H]2CCCN2C(=O)[C@@H](CC(C)C)N(C)C(=O)[C@@H](C)N(C)C(=O)[C@@H](Cc2ccccc2)NC(=O)[C@@H]2CCCN2C(=O)[C@H]2CCCN2C1=O` [Design D11.6, V*L*lAipPf*a*lP] (cyclo([dF][dNMeA][dNMeL]PV[NMeL][dNMeL]A[dI][dP]P)), with 1.7 ×10⁻⁶ cm/s.
Then `CC[C@H](C)[C@@H]1NC(=O)[C@@H](CC(C)C)N(C)C(=O)[C@H](CC(C)C)N(C)C(=O)[C@@H](Cc2ccccc2)NC(=O)[C@@H](CC(C)C)N(C)C(=O)[C@H]2CCCN2C(=O)[C@H]2CCCN2C(=O)[C@@H]2CCCN2C(=O)[C@@H](C(C)C)NC(=O)[C@@H]2CCCN2C(=O)[C@H](C)NC1=O` [Design D11.11, Ppp*lf*L*lIAPv] (cyclo(AP[dV]P[dP][dP][dNMeL][dF][NMeL][dNMeL]I)), with 2.81 ×10⁻⁶ cm/s.

The Papp is the rate of passage across a membrane or cell layer, normalised by area and donor concentration.
